Results published in patent publication US20250324971A1, “HERBICIDAL DERIVATIVES” (SYNGENTA CROP PROTECTION AG, priority 2022, published 2025).

Assays:
Type in all cases: in vivo
[1] = tested on: Ipomoea hederacea (IPOHE); assay: Pre-Emergence Test (herbicidal, glasshouse pots); conditions: evaluated after 13 days, five-point scale
Zea mays (ZEAMX) [2] = assay: Pre-Emergence Test (herbicidal, glasshouse pots); conditions: evaluated after 13 days, five-point scale
Setaria faberi (SETFA) [3] = assay: Pre-Emergence Test (herbicidal, glasshouse pots); conditions: evaluated after 13 days, five-point scale
[4] = tested on: Amaranthus palmeri (AMAPA); assay: Pre-Emergence Test (herbicidal, glasshouse pots); conditions: evaluated after 13 days, five-point scale
[5] = tested on: Amaranthus retoflexus (AMARE); assay: Pre-Emergence Test (herbicidal, glasshouse pots); conditions: evaluated after 13 days, five-point scale
Setaria faberi (SETFA) [6] = assay: Post-Emergence Test (herbicidal, glasshouse pots); conditions: evaluated after 13 days
Protocol: (§1) Seeds of a variety of test species are sown in standard soil in pots (Setaria faberi (SETFA), Ipomoea hederacea (IPOHE), Echinochloa crus-galli (ECHCG), (Amaranthus retoflexus (AMARE), Zea mays (ZEAMX), and Amaranthus palmeri (AMAPA)). After 8 days cultivation under controlled conditions in a glasshouse (at 24° C./16° C., day/night; 14 hours light; 65% humidity), the plants arm sprayed with an aqueous spray solution derived from the formulation of the technical active ingredient in acetone/water (50:50) solution containing 0.5% Tween 20 (polyoxyethylene sorbitan monolaurate, CAS RN 9005-84-5). Rate of application is shown in g/ha in the tables below. The test plants are then grown in a glasshouse under controlled conditions in a glasshouse (at 24° C./16° C., day/night; 14 hours light; 65% humidity) and watered twice daily. After 13 days the test is evaluated for the percentage damage caused to the plant. The biological activities are shown in the following table on a five-point scale (5=81-100%; 4=61-80%; 3=41-60%; 2=21-40%; 1=0-20%; -=not tested).

[7] = tested on: Amaranthus palmeri (AMAPA); assay: Post-Emergence Test (herbicidal, glasshouse pots); conditions: evaluated after 13 days
Protocol: as §1

[8] = tested on: Ipomoea hederacea (IPOHE); assay: Post-Emergence Test (herbicidal, glasshouse pots); conditions: evaluated after 13 days
Protocol: as §1

Zea mays (ZEAMX) [9] = assay: Post-Emergence Test (herbicidal, glasshouse pots); conditions: evaluated after 13 days
Protocol: as §1

[10] = tested on: Echinochloa crus-galli (ECHCG); assay: Post-Emergence Test (herbicidal, glasshouse pots); conditions: evaluated after 13 days
Protocol: as §1

[11] = tested on: Amaranthus retoflexus (AMARE); assay: Post-Emergence Test (herbicidal, glasshouse pots); conditions: evaluated after 13 days
Protocol: as §1

[12] = tested on: Echinochloa crus-galli (ECHCG); assay: Pre-Emergence Test (herbicidal, glasshouse pots); conditions: evaluated after 13 days, five-point scale

Compound	percentage damage caused to the plant, IPHOE ([1]; rate 1000 g/ha)	percentage damage caused to the plant, ZEAMX (Zea mays (ZEAMX) [2]; rate 1000 g/ha)	percentage damage caused to the plant, SETFA (Setaria faberi (SETFA) [3]; rate 1000 g/ha)	percentage damage caused to the plant, AMAPA ([4]; rate 1000 g/ha)	percentage damage caused to the plant, AMARE ([5]; rate 1000 g/ha)	Post-Emergence Test SETFA percentage damage (five-point scale) (Setaria faberi (SETFA) [6]; rate 1000 g/ha)	Post-Emergence Test AMAPA percentage damage (five-point scale) ([7]; rate 1000 g/ha)	Post-Emergence Test IPHOE percentage damage (five-point scale) ([8]; rate 1000 g/ha)	percentage damage caused to the plant, IPHOE ([1]; rate 250 g/ha)	percentage damage caused to the plant, ZEAMX (Zea mays (ZEAMX) [2]; rate 250 g/ha)	percentage damage caused to the plant, SETFA (Setaria faberi (SETFA) [3]; rate 250 g/ha)	percentage damage caused to the plant, AMAPA ([4]; rate 250 g/ha)	percentage damage caused to the plant, AMARE ([5]; rate 250 g/ha)	Post-Emergence Test SETFA percentage damage (five-point scale) (Setaria faberi (SETFA) [6]; rate 250 g/ha)	Post-Emergence Test AMAPA percentage damage (five-point scale) ([7]; rate 250 g/ha)	Post-Emergence Test IPHOE percentage damage (five-point scale) ([8]; rate 250 g/ha)	Post-Emergence Test ZEAMX percentage damage (five-point scale) (Zea mays (ZEAMX) [9]; rate 250 g/ha)	Post-Emergence Test ECHCG percentage damage (five-point scale) ([10]; rate 250 g/ha)	Post-Emergence Test AMARE percentage damage (five-point scale) ([11]; rate 250 g/ha)	percentage damage caused to the plant, ECHCG ([12]; rate 250 g/ha)	also measured
CCn1c(Oc2ccccc2F)cc(=O)c(C(=O)O)c1-c1ccc(Cl)c(Cl)c1 [Compound 3, 2-(3,4-dichlorophenyl)-1-ethyl-6-(2-fluorophenoxy)-4-oxo-pyridine-3-carboxylic acid]	4 (4=61-80%)	2 (2=21-40%)	5 (5=81-100%)	1 (1=0-20%)	2 (2=21-40%)	4 (4=61-80%)	2 (2=21-40%)	3 (3=41-60%)	–	–	–	–	–	–	–	–	–	–	–	–	Post-Emergence Test ZEAMX percentage damage (five-point scale) (Zea mays (ZEAMX) [9]; rate 1000 g/ha): 2 (2=21-40%); Post-Emergence Test ECHCG percentage damage (five-point scale) ([10]; rate 1000 g/ha): 4 (4=61-80%); Post-Emergence Test AMARE percentage damage (five-point scale) ([11]; rate 1000 g/ha): 3 (3=41-60%); percentage damage caused to the plant, ECHCG ([12]; rate 1000 g/ha): 4 (4=61-80%)
CCn1c(Oc2ccc(Cl)cn2)cc(=O)c(C(=O)O)c1-c1ccc(Cl)c(Cl)c1 [Compound 38, 6-[(5-chloro-2-pyridyl)oxy]-2-(3,4-dichlorophenyl)-1-ethyl-4-oxo-pyridine-3-carboxylic acid]	–	–	–	–	–	–	–	–	4 (4=61-80%)	4 (4=61-80%)	5 (5=81-100%)	2 (2=21-40%)	3 (3=41-60%)	4 (4=61-80%)	4 (4=61-80%)	4 (4=61-80%)	4 (4=61-80%)	3 (3=41-60%)	4 (4=61-80%)	5 (5=81-100%)	–
CCn1c(Oc2ccc(F)c(F)c2)cc(=O)c(C(=O)O)c1-c1ccc(Cl)c(Cl)c1 [Compound 28, 2-(3,4-dichlorophenyl)-6-(3,4-difluorophenoxy)-1-ethyl-4-oxo-pyridine-3-carboxylic acid]	4 (4=61-80%)	4 (4=61-80%)	5 (5=81-100%)	4 (4=61-80%)	5 (5=81-100%)	4 (4=61-80%)	4 (4=61-80%)	3 (3=41-60%)	–	–	–	–	–	–	–	–	–	–	–	–	Post-Emergence Test ZEAMX percentage damage (five-point scale) (Zea mays (ZEAMX) [9]; rate 1000 g/ha): 4 (4=61-80%); Post-Emergence Test ECHCG percentage damage (five-point scale) ([10]; rate 1000 g/ha): 4 (4=61-80%); Post-Emergence Test AMARE percentage damage (five-point scale) ([11]; rate 1000 g/ha): 4 (4=61-80%); percentage damage caused to the plant, ECHCG ([12]; rate 1000 g/ha): 4 (4=61-80%)
CCn1c(Oc2ccc(OC(F)(F)F)cc2)cc(=O)c(C(=O)O)c1-c1ccc(Cl)c(Cl)c1 [Compound 20, 2-(3,4-dichlorophenyl)-1-ethyl-4-oxo-6-[4-(trifluoromethoxy)phenoxy]pyridine-3-carboxylic acid]	2 (2=21-40%)	3 (3=41-60%)	5 (5=81-100%)	4 (4=61-80%)	4 (4=61-80%)	5 (5=81-100%)	3 (3=41-60%)	3 (3=41-60%)	–	–	–	–	–	–	–	–	–	–	–	–	Post-Emergence Test ZEAMX percentage damage (five-point scale) (Zea mays (ZEAMX) [9]; rate 1000 g/ha): 3 (3=41-60%); Post-Emergence Test ECHCG percentage damage (five-point scale) ([10]; rate 1000 g/ha): 4 (4=61-80%); Post-Emergence Test AMARE percentage damage (five-point scale) ([11]; rate 1000 g/ha): 4 (4=61-80%); percentage damage caused to the plant, ECHCG ([12]; rate 1000 g/ha): 5 (5=81-100%)
CCn1c(Oc2cc(C)on2)cc(=O)c(C(=O)O)c1-c1ccc(Cl)c(Cl)c1 [Compound 46, 2-(3,4-dichlorophenyl)-1-ethyl-6-(5-methylisoxazol-3-yl)oxy-4-oxo-pyridine-3-carboxylic acid]	–	–	–	–	–	–	–	–	2 (2=21-40%)	0	1 (1=0-20%)	1 (1=0-20%)	2 (2=21-40%)	0	0	3 (3=41-60%)	0	1 (1=0-20%)	2 (2=21-40%)	1 (1=0-20%)	–
CCn1cc(Oc2cc(=O)c(C(=O)O)c(-c3ccc(Cl)c(Cl)c3)n2CC)cn1 [Compound 59, 2-(3,4-dichlorophenyl)-1-ethyl-6-(1-ethylpyrazol-4-yl)oxy-4-oxo-pyridine-3-carboxylic acid]	–	–	–	–	–	–	–	–	4 (4=61-80%)	3 (3=41-60%)	5 (5=81-100%)	1 (1=0-20%)	2 (2=21-40%)	3 (3=41-60%)	3 (3=41-60%)	4 (4=61-80%)	4 (4=61-80%)	3 (3=41-60%)	4 (4=61-80%)	4 (4=61-80%)	–
C#CC(C)Oc1cc(=O)c(C(=O)O)c(-c2ccc(Cl)c(Cl)c2)n1CC (stereo not drawn) [Compound 49, 2-(3,4-dichlorophenyl)-1-ethyl-6-(1-methylprop-2-ynoxy)-4-oxo-pyridine-3-carboxylic acid]	–	–	–	–	–	–	–	–	1 (1=0-20%)	0	1 (1=0-20%)	0	1 (1=0-20%)	0	4 (4=61-80%)	1 (1=0-20%)	1 (1=0-20%)	0	1 (1=0-20%)	1 (1=0-20%)	–
CCn1c(Oc2ccc(OC)c(OC)c2)cc(=O)c(C(=O)O)c1-c1ccc(Cl)c(Cl)c1 [Compound 21, 2-(3,4-dichlorophenyl)-6-(3,4-dimethoxyphenoxy)-1-ethyl-4-oxo-pyridine-3-carboxylic acid]	3 (3=41-60%)	1 (1=0-20%)	4 (4=61-80%)	1 (1=0-20%)	1 (1=0-20%)	5 (5=81-100%)	3 (3=41-60%)	3 (3=41-60%)	–	–	–	–	–	–	–	–	–	–	–	–	Post-Emergence Test ZEAMX percentage damage (five-point scale) (Zea mays (ZEAMX) [9]; rate 1000 g/ha): 1 (1=0-20%); Post-Emergence Test ECHCG percentage damage (five-point scale) ([10]; rate 1000 g/ha): 1 (1=0-20%); Post-Emergence Test AMARE percentage damage (five-point scale) ([11]; rate 1000 g/ha): 4 (4=61-80%); percentage damage caused to the plant, ECHCG ([12]; rate 1000 g/ha): 2 (2=21-40%)
CCn1c(Oc2ccc3nccnc3c2)cc(=O)c(C(=O)O)c1-c1ccc(Cl)c(Cl)c1 [Compound 42, 2-(3,4-dichlorophenyl)-1-ethyl-4-oxo-6-quinoxalin-6-yloxy-pyridine-3-carboxylic acid]	–	–	–	–	–	–	–	–	2 (2=21-40%)	0	1 (1=0-20%)	2 (2=21-40%)	2 (2=21-40%)	1 (1=0-20%)	1 (1=0-20%)	3 (3=41-60%)	1 (1=0-20%)	1 (1=0-20%)	1 (1=0-20%)	1 (1=0-20%)	–
